Common to all, as to type: in vivo
Experiment [1] relates to trained panelists (saltiness perception). Nature of the experiment: 2-Alternative Forced Choice human taste test, saltiness in low sodium chicken broth. Conditions: for Sample selected as saltier by panelists (Total): 55° C.; for saltiness of test sample versus control sample: p<0.1. How it is done: Samples of low sodium chicken broth were prepared and compared using human taste tests. Control samples contained low sodium chicken broth alone. Test samples contained the same low sodium chicken broth to which a specific umami compound was added at a specified concentration. To prepare the test sample, a concentrated stock solution of an umami compound was prepared in ethanol. […] To create the control sample, the chicken broth was balanced with 0.1% ethanol. All samples were served at 55° C. Trained panelists were used to complete the test with three replicates (subject number reported in each table). A 2-Alternative Forced Choice test was used, where panelists received two three-digit blind-coded samples, one control and one test sample, in randomized, counter-balanced order. Panelists tasted samples, rinsing with water between samples, and indicated which of the two samples was […]. The results were analyzed using a binomial distribution with alpha=0.1.

The test system is the same in experiment [2]. The experiment is described as follows: 2-Alternative Forced Choice human taste test, saltiness in chicken broth (low sodium broth + 100 mM NaCl). Conditions: for Sample selected as saltier by panelists (Total): 0.1% ethanol, 55° C.; for saltiness of test sample versus control sample: p<0.1. How it is done: Samples of chicken broth were prepared and compared using human taste tests. Control samples contained chicken broth alone. Test samples contained the same chicken broth to which a specific umami compound was added at a specified concentration. To prepare the test sample, a concentrated stock solution of an umami compound was prepared in ethanol. The stock solution was added to a commercially available no-MSG added, low sodium chicken broth (Pacific Organic Free Range Chicken Broth Low Sodium), to which 100 mM NaCl was also added, resulting in a final concentration of the umami compound in the test sample with 0.1% ethanol. To create the control sample, 100 mM NaCl was added to the low sodium chicken broth, and it was balanced with 0.1% ethanol. All samples were served at 55° C. A 2-Alternative Forced Choice test was used, where panelists received two three-digit blind-coded samples, one control and one test sample, in randomized, counter-balanced order. Panelists tasted samples, rinsing with water between samples, and indicated which of the two samples was […]. The results were analyzed using a binomial distribution with alpha=0.1.

The test system is the same in experiment [3]. The experiment is described as follows: Difference from Reference scaling human taste test, saltiness in low sodium chicken broth. How it is done: Samples of low sodium chicken broth were prepared and compared using human taste tests. The reference samples contained low sodium chicken broth alone. The test samples contained the same low sodium chicken broth to which a specific umami compound was added. To prepare the test samples, a concentrated stock solution of an umami compound was prepared in ethanol. The stock solution was added to a commercially available no-MSG added, low sodium chicken broth (Pacific Organic Free Range Chicken Broth Low Sodium), resulting in a final concentration of the umami compound in the test sample with 0.1% ethanol. To create the reference sample, the low sodium chicken broth was balanced with 0.1% ethanol. All samples were served at 55° C. Trained panelists were used to complete the test with two replicates (subject number reported in each table). A Difference from Reference scaling test was used. Panelists received pairs of samples, consisting of the reference sample and a three-digit blind coded sample, which was either the reference sample again (i.e., a negative control), or the test sample containing the compound of interest. Panelists first tasted the reference sample, then rinsed with water and tasted the blind-coded sample. Panelists were asked to score the test sample for differences in saltiness as compared to the reference sample. […] The test also included measurement of other attributes rated on separate scales (e.g., umami intensity, bitterness, and chicken flavor) to ensure responses for saltiness focused solely on that attribute. The order in which panelists received sample pairs containing either the reference or the test sample as the three-digit blind coded sample was randomized and counterbalanced. The results were analyzed using a two-tailed Student's t-test, with alpha=0.1.

SMILES strings stand for the structures.

`CCCC(CCC)NC(=O)c1ccc2c(c1)OCO2` [Formula (1a)]: the “Sample selected as saltier by panelists (Total)” value (shortened to “Sample selected as saltier”) turned out to be 35 in experiment [1] (2 ppm in low sodium chicken broth, 0.05% ethanol, n = 48 (16 panelists × 3 replicates)) and 31 in experiment [2] (2 ppm in chicken broth (100 mM NaCl added), n = 48 (16 panelists × 3 replicates)). Besides, the “saltiness of test sample versus control sample” value in experiment [1] (2 ppm in low sodium chicken broth) and in experiment [2] (2 ppm in chicken broth (100 mM NaCl added)) was “significantly saltier” each time.

On to `COc1cccc(-c2n[nH]c(SCc3ccccn3)n2)c1OC` [Formula (1b)], for which, in experiment [1] (5 ppm in low sodium chicken broth, 0.1% ethanol, n = 48 (16 panelists × 3 replicates)), the “Sample selected as saltier” value is recorded as 33. In experiment [1] (5 ppm in low sodium chicken broth), the “saltiness of test sample versus control sample” value was “significantly saltier”. Moreover, the “Average Saltiness Score of Test Sample as compared to Reference Sample” value in experiment [3] (5 ppm in low sodium chicken broth, 11-point scale −5 to +5, n = 24 (12 panelists × 2 replicates)) amounted to 0.7. Further, the “saltiness of test sample versus reference sample” value in experiment [3] (5 ppm in low sodium chicken broth, p<0.1) is listed as “significantly saltier”.

As for `COc1cc(C)ccc1CNC(=O)C(=O)NCCc1ccccn1` [Formula (1c)], the “Sample selected as saltier” value was 36 in experiment [1] (1 ppm in low sodium chicken broth, 0.1% ethanol, n = 48 (16 panelists × 3 replicates)) and 33 in experiment [2] (1 ppm in chicken broth (100 mM NaCl added), n = 51 (17 panelists × 3 replicates)). For the same molecule, the “saltiness of test sample versus control sample” value in experiment [1] (1 ppm in low sodium chicken broth) and in experiment [2] (1 ppm in chicken broth (100 mM NaCl added)) was “significantly saltier” each time.

Turning to `COc1cccc(CNC(=O)C(=O)NCCc2ccccn2)c1OC` [Formula (1d)], the “Sample selected as saltier” value in experiment [1] (8 ppm in low sodium chicken broth, 0.1% ethanol, n = 51 (17 panelists × 3 replicates)) was 37; in experiment [2] (8 ppm in chicken broth (100 mM NaCl added), n = 48 (16 panelists × 3 replicates)), 31. For the same molecule, the “saltiness of test sample versus control sample” value in experiment [1] (8 ppm in low sodium chicken broth) and in experiment [2] (8 ppm in chicken broth (100 mM NaCl added)) was “significantly saltier” each time. For the same molecule, the “Average Saltiness Score of Test Sample as compared to Reference Sample” value in experiment [3] (8 ppm in low sodium chicken broth, 11-point scale −5 to +5, n = 30 (15 panelists × 2 replicates)) stood at 0.8. In addition, in experiment [3] (8 ppm in low sodium chicken broth, p<0.1), the “saltiness of test sample versus reference sample” value is “significantly saltier”.

In the case of `COC[C@@H](CC(C)C)NC(=O)c1ccc(C)c(C)c1` [Formula (1e)], the “Sample selected as saltier” value in experiment [1] (2 ppm in low sodium chicken broth, 0.1% ethanol, n = 51 (17 panelists × 3 replicates)) is listed as 32. Also, the “saltiness of test sample versus control sample” value in experiment [1] (2 ppm in low sodium chicken broth, 0.1% ethanol) is on record as “significantly saltier”. Also, in experiment [3] (2 ppm in low sodium chicken broth, 11-point scale −5 to +5, n = 30 (15 panelists × 2 replicates)), the “Average Saltiness Score of Test Sample as compared to Reference Sample” value worked out at 0.5. Besides, in experiment [3] (2 ppm in low sodium chicken broth, p<0.1), the “saltiness of test sample versus reference sample” value is “significantly saltier”.

Consider `COc1cc(C)ccc1CNC(=O)C(=O)NCCc1ccc(C)cn1` [Formula (1f)], for which the “Sample selected as saltier” value in experiment [2] (2 ppm Formula (1f) in chicken broth (100 mM NaCl added), n = 48 (16 panelists × 3 replicates)) is reported as 32. Moreover, the “saltiness of test sample versus control sample” value in experiment [2] (2 ppm Formula (1f) in chicken broth (100 mM NaCl added)) is on record as “significantly saltier”. Also, the “Average Saltiness Score of Test Sample as compared to Reference Sample” value in experiment [3] (1 ppm in low sodium chicken broth, 11-point scale −5 to +5, n = 26 (13 panelists × 2 replicates)) was 1.0. The “saltiness of test sample versus reference sample” value in experiment [3] (1 ppm in low sodium chicken broth, n = 26, p<0.1) is reported as “significantly saltier”.

On to `COc1ccc(CNC(=O)C(=O)NCCc2ccccn2)c(OC)c1` [Formula (1g)], for which the “Average Saltiness Score of Test Sample as compared to Reference Sample” value in experiment [3] (1 ppm in low sodium chicken broth, 11-point scale −5 to +5, n = 30 (15 panelists × 2 replicates)) is recorded as 0.5. In experiment [3] (1 ppm in low sodium chicken broth, n = 30, p<0.1), the “saltiness of test sample versus reference sample” value is “significantly saltier”.

(Values after patent US20170042196A1, “USE OF UMAMI COMPOUNDS TO ENHANCE SALTINESS” (Senomyx, Inc., priority 2015, published 2017).)
